Assay results from US12643871B2, “Aryl formamide compound containing chiral sulfur oxide or salt thereof, preparation method, herbicidal composition and use thereof” (Qingdao Kingagroot Chemical Compound Co., Ltd., priority 2019, dated 2026).

Columns and labels:
Assay type in all cases: in vivo
[1] = system: key weeds such as Digitaria sanguinalis, Leptochloa chinensis; assay: Comparison experiment (post-emergence, Tables 4-7), herbicidal activity on weeds not listed separately; details: dose of 125, 60, 30, 15 g/ha
Method in brief: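 Readout: fresh weight control rate, counted 15 days post-spray and averaged over three replicates. Pot-grown plants (seeds under 0.5-2 cm soil) were treated at the 2 leaf stage, two weeks after sowing, with 15–500 g/ha compound plus methyl oleate synergist at 1.5 liter/ha.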

rice and other crops = assay: Comparison experiment (post-emergence, Tables 4-7), crop safety; details: dose of 125, 60, 30, 15 g/ha
Source text: The above growth control rates are fresh weight control rates.
Experiment on weeding effect in post-emergence stage: monocotyledonous and dicotyledonous weed seeds (Descurainia sophia, Capsella bursa-pastoris, Galium aparine, Stellaria media, Lithospermum arvense, Rorippa indica, Alopecurus aequalis, Beckmannia syzigachne, Sclerochloa dura, Phleum paniculatum, Bromus japonicus, Aegilops tauschii, Phalaris arundinacea, Amaranthus retroflexus, Chenopodiaceae, Commelina communis, Sonchus arvensis, convolvulus arvensis, Cirsium setosum, Solanum nigrum, Acalypha australis, Digitaria sanguinalis, Echinochloa crusgalli, Setaria viridis, Setaria glauca, Leptochloa chinensis, Monochoria vaginalis, Sagittaria trifolia, Scirpus juncoides, Cyperus rotundus, Cyperus iria, Cyperus difformis, Fimbristylis, Portulaca oleracea, Xanthium sibiricum, Pharbitis nil) and major crop seeds (wheat, corn, rice, soybean, cotton, oilseed rape, millet, sorghum, potato, sesame, ricinus) were placed in plastic pots filled with soil, then covered with 0.5-2 cm of soil, allowed to grow in a good greenhouse environment. After 2 weeks of sowing, the test plants were treated in the 2 leaf stage. The tested compounds of the present invention were respectively dissolved in acetone, then added with Tween 80 and 1.5 liter/ha of emulsifiable concentrate of methyl oleate as synergist, diluted with a certain amount of water to obtain a solution with a certain concentration, and sprayed with a spray tower onto the plants. After the application, the plants were cultured for 15 days in the greenhouse, and then the experimental results of the weeding were counted. The doses of the used compounds were 500, 250, 125, 60, 30, 15 g/ha, and the averages were obtained by repeating for three times.
If there is no clear marker, the post-seedling test conditions are the same as above, and the experimental results are shown in Tables 4-7.

Setaria viridis = assay: Weeding effect in post-emergence stage; details: 250 g/ha; 2 leaf stage; 15 days after application; fresh weight control rate
Method in brief: (§1)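 Reported levels reflect fresh weight growth control rate banded 0 (<5%) through 5 (>85%), averaged over three repetitions. Treatment: foliar spray of 2-leaf-stage greenhouse plants at 15 to 500 g/ha, with 1.5 liter/ha methyl oleate synergist; assessment 15 days after application.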

Echinochloa crusgali = assay: Weeding effect in post-emergence stage; details: 250 g/ha; 2 leaf stage; 15 days after application; fresh weight control rate
Method in brief: as §1

Amaranthus retroflexus = assay: Weeding effect in post-emergence stage; details: 250 g/ha; 2 leaf stage; 15 days after application; fresh weight control rate
Method in brief: as §1

Abutilon theophrasti = assay: Weeding effect in post-emergence stage; details: 250 g/ha; 2 leaf stage; 15 days after application; fresh weight control rate
Method in brief: as §1

Digitaria sanguinalis = assay: Weeding effect in post-emergence stage; details: 250 g/ha; 2 leaf stage; 15 days after application; fresh weight control rate
Method in brief: as §1

Row | SMILES | activity to key weeds such as Digitaria sanguinalis, Leptochloa chinensis compared with the corresponding racemate or S configuration [1] | safety to rice and other crops compared with the corresponding racemate or S configuration (rice and other crops) | weeding effect in post-emergence stage, activity level (growth control rate), Setaria viridis (Setaria viridis) | weeding effect in post-emergence stage, activity level (growth control rate), Echinochloa crusgali (Echinochloa crusgali) | weeding effect in post-emergence stage, activity level (growth control rate), Amaranthus retroflexus (Amaranthus retroflexus) | weeding effect in post-emergence stage, activity level (growth control rate), Abutilon theophrasti (Abutilon theophrasti) | weeding effect in post-emergence stage, activity level (growth control rate), Digitaria sanguinalis (Digitaria sanguinalis)
1 | CC(C)=NOCC[S@@+]([O-])c1c(C(F)(F)F)ccc(C(=O)Nc2nnc(C)o2)c1F [Compound 166] | better activity | higher safety | 5 (Level 5: growth control rate is above 85%) | 5 (Level 5: growth control rate is above 85%) | 5 (Level 5: growth control rate is above 85%) | 5 (Level 5: growth control rate is above 85%) | 5 (Level 5: growth control rate is above 85%)
2 | Cc1nnc(NC(=O)c2ccc(C(F)(F)F)c([S@+]([O-])CCC3CC3)c2F)o1 [Compound 17] | better activity | higher safety | 5 (Level 5: growth control rate is above 85%) | 5 (Level 5: growth control rate is above 85%) | 5 (Level 5: growth control rate is above 85%) | 5 (Level 5: growth control rate is above 85%) | 5 (Level 5: growth control rate is above 85%)
3 | Cc1nnc(NC(=O)c2ccc(C(F)(F)F)c([S@+]([O-])CCO)c2F)o1 [Compound 54] | better activity | higher safety | 5 (Level 5: growth control rate is above 85%) | 5 (Level 5: growth control rate is above 85%) | 5 (Level 5: growth control rate is above 85%) | 5 (Level 5: growth control rate is above 85%) | 5 (Level 5: growth control rate is above 85%)
4 | CCCCC[S@@+]([O-])c1c(C(F)(F)F)ccc(C(=O)Nc2nnc(C)o2)c1F [Compound 8] | better activity | higher safety | 4 (Level 4: growth control rate is greater than or equal to 60% and less than 85%) | 5 (Level 5: growth control rate is above 85%) | 5 (Level 5: growth control rate is above 85%) | 5 (Level 5: growth control rate is above 85%) | 4 (Level 4: growth control rate is greater than or equal to 60% and less than 85%)
5 | Cc1nnc(NC(=O)c2ccc(C(F)(F)F)c([S@+]([O-])CC=C(Cl)Cl)c2F)o1 [Compound 40] | better activity | higher safety | 5 (Level 5: growth control rate is above 85%) | 5 (Level 5: growth control rate is above 85%) | 5 (Level 5: growth control rate is above 85%) | 5 (Level 5: growth control rate is above 85%) | 5 (Level 5: growth control rate is above 85%)
6 | C=CCC[S@@+]([O-])c1c(C(F)(F)F)ccc(C(=O)Nc2nnc(C)o2)c1F [Compound 20] | better activity | higher safety | 5 (Level 5: growth control rate is above 85%) | 5 (Level 5: growth control rate is above 85%) | 5 (Level 5: growth control rate is above 85%) | 5 (Level 5: growth control rate is above 85%) | 5 (Level 5: growth control rate is above 85%)
7 | CCC[S@@+]([O-])c1c(C(F)(F)F)ccc(C(=O)N(c2nnc(C)o2)C(C)OC(=O)OCC)c1F (stereo partly drawn) [Compound 261] | better activity | higher safety | 5 (Level 5: growth control rate is above 85%) | 5 (Level 5: growth control rate is above 85%) | 5 (Level 5: growth control rate is above 85%) | 5 (Level 5: growth control rate is above 85%) | 5 (Level 5: growth control rate is above 85%)
8 | Cc1nnc(NC(=O)c2ccc(C(F)(F)F)c([S@@+]([O-])C[S+](C)[O-])c2F)o1 (stereo partly drawn) [Compound 205] | better activity | higher safety | 5 (Level 5: growth control rate is above 85%) | 5 (Level 5: growth control rate is above 85%) | 5 (Level 5: growth control rate is above 85%) | 5 (Level 5: growth control rate is above 85%) | 5 (Level 5: growth control rate is above 85%)
9 | CCC[S@@+]([O-])c1c(C(F)F)ccc(C(=O)Nc2nnc(C)o2)c1Cl [Compound 617] | better activity | higher safety | 5 (Level 5: growth control rate is above 85%) | 5 (Level 5: growth control rate is above 85%) | 5 (Level 5: growth control rate is above 85%) | 5 (Level 5: growth control rate is above 85%) | 5 (Level 5: growth control rate is above 85%)
